Laboratory results from patent US7989466B2, “Methods to inhibit or augment an inflammatory response” (Cambridge Enterprise Limited, priority 1999, dated 2011).
Positions of bridges follow the written chain, without caps; N, C: chain ends. Non-standard residues stand in square brackets, D forms with d. Residues, ends and D or L forms follow the SMILES beside them. No end group written: not given here.

Key:
[1] = system: LPS-induced serum TNF-α
[2] = system: SDF-1α induced human monocyte migration; experiment: Human monocyte migration, SDF-1α; assay type: cell-based; conditions: n.s. = no statistically significant inhibition
Description: (§1) Agents may also be screened in a chemotactic assay which employs human neutrophils, eosinophils, mast cells, basophils, platelets, lymphocytes or monocytes. For monocytes, 9 mls of fresh blood are transferred to a tube containing 1 ml of 3.8% sodium citrate, and left at room temperature for 15 minutes. Five mls of this anti-coagulated blood are carefully layered over 3.5 ml Polymorphprep® (Nycomed Pharma, Oslo), and centrifuged at 500 g for 35 minutes per the manufacturer's instructions. The top band at the sample/medium interface contains monocytes. The monocytes are carefully removed with a glass pipette, and reconstituted to the original volume (5 ml). The cells are washed with PBS plus 10% fetal calf serum, and centrifuged at 400 g for 10 minutes. The washing step is repeated three times before the cells are counted. Cells are resuspended at 1×10^7 cells/ml in RPMI-1640+10% fetal calf serum (FCS). The monocytes are cultured for two days at 37° C. in a humidified atmosphere of 5% CO2.
(§2) On day 2, the cells are counted, spun down, and reconstituted to 1×10^7 cells/ml in Gey's balanced salt solution+1 mg/ml bovine serum albumin (BSA). […]

[3] = system: IL8 induced human monocyte migration; experiment: Human monocyte migration, IL8; assay type: cell-based; conditions: n.s. = no statistically significant inhibition
Description: as §1, §2

[4] = system: TGFβ1 induced human monocyte migration; experiment: Human monocyte migration, TGFβ1; assay type: cell-based; conditions: n.s. = no statistically significant inhibition
Description: as §1, §2

| Compound | serum TNF-α in LPS treated mice, in words ([1]; i.v. loading dose and s.c. bolus 30 minutes before 583 μg LPS i.p.) | local tolerance at the site of injection ([1]; mouse, in vivo, sc) | % inhibition at 100 μM versus SDF-1α, human monocyte migration [2] | % inhibition at 100 μM versus IL8, human monocyte migration [3] | % inhibition at 100 μM versus TGFβ1, human monocyte migration [4] |
| --- | --- | --- | --- | --- | --- |
| CC[C@@H](C)[C@H]1NC(=O)[C@@H](CCC(N)=O)NC(=O)[C@H](N)CSSC[C@H](C(N)=O)NC(=O)[C@@H](CC(C)C)NC(=O)[C@@H](CC(=O)O)NC(=O)[C@H]2CCCN2C(=O)[C@@H](CCCCN)NC(=O)[C@@H](CCC(N)=O)NC(=O)[C@@H](CCCCN)NC(=O)[C@@H](Cc2c[nH]c3ccccc23)NC1=O (H-[dC][dQ][dI][dW][dK][dQ][dK][dP][dD][dL][dC]-NH2; disulfide 1-11; N-terminus assumed) | dose dependent decrease |  |  |  |  |
| C=CCCCCCCCCC(=O)N[C@H]1CCC(=O)NC1=O [A-I (NR58.4), [3S]-3-(undec-10-enoylamino)piperidine-2,6-dione] |  | irritation was noted at the site of injection |  |  |  |
| EICADPKQKWVQ [peptide 3(1-12)[MCP-1]] |  |  | 108% | 106% | n.s. |
| SYRRITSSKCPKEAV [peptide 2(1-15)[MCP-1]] |  |  | n.s. | n.s. | n.s. |
